# Source: ChEMBL document CHEMBL4507317, “Data for DCP probe BAY-899” (2021)
# Experiments:
# [1] = target: Non-receptor tyrosine-protein kinase TYK2 (Homo sapiens) (UniProt P29597); conditions: Compound concentration 1000.0 nM
# [2] = target: Calcium/calmodulin-dependent protein kinase type II subunit delta (Homo sapiens) (UniProt Q13557); conditions: Compound concentration 1000.0 nM
# [3] = target: Inhibitor of nuclear factor kappa-B kinase subunit alpha (Homo sapiens) (UniProt O15111); conditions: Compound concentration 1000.0 nM
# [4] = target: Tyrosine-protein kinase Lyn (Homo sapiens) (UniProt P07948); conditions: Compound concentration 1000.0 nM
# [5] = test system: Tyrosine-protein kinase ABL1 (Homo sapiens), P00519 [Q252H]; conditions: Compound concentration 1000.0 nM
# [6] = target: Phosphatidylinositol 5-phosphate 4-kinase type-2 gamma (Homo sapiens) (UniProt Q8TBX8); conditions: Compound concentration 1000.0 nM
# [7] = target: Serine/threonine-protein kinase PLK2 (Homo sapiens) (UniProt Q9NYY3); conditions: Compound concentration 1000.0 nM
# [8] = target: Cyclin-dependent kinase-like 1 (Homo sapiens) (UniProt Q00532); conditions: Compound concentration 1000.0 nM
# [9] = target: Cyclin-dependent kinase 19 (Homo sapiens) (UniProt Q9BWU1); conditions: Compound concentration 1000.0 nM
# [10] = target: Myosin light chain kinase (Homo sapiens) (UniProt Q32MK0); conditions: Compound concentration 1000.0 nM
# [11] = target: Insulin receptor-related protein (Homo sapiens) (UniProt P14616); conditions: Compound concentration 1000.0 nM
# [12] = test system: Tyrosine-protein kinase ABL1 (Homo sapiens), P00519 [Q252H]; conditions: Compound concentration 1000.0 nM; remark: listed apart in the source
# [13] = target: Mitogen-activated protein kinase kinase kinase 13 (Homo sapiens) (UniProt O43283); conditions: Compound concentration 1000.0 nM
# [14] = target: Beta-2 adrenergic receptor (Homo sapiens) (UniProt P07550); conditions: Compound concentration 10.0 uM
# [15] = target: 5-hydroxytryptamine receptor 1D (Homo sapiens) (UniProt P28221); conditions: Compound concentration 10.0 uM
# 5-hydroxytryptamine receptor 1D (Homo sapiens), sequence (P28221 whole entry): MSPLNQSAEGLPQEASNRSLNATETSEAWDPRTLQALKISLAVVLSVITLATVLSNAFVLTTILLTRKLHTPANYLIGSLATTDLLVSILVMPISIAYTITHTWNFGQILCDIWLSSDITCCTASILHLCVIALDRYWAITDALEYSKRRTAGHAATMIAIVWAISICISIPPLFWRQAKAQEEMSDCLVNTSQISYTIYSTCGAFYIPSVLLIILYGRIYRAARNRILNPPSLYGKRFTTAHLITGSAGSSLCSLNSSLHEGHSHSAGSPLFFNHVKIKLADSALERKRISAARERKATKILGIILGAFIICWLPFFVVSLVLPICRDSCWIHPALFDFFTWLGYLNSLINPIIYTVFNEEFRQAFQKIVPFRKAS
# [16] = target: GABA-A receptor; anion channel (Rattus norvegicus) (UniProt O09028+P15431+P18506+P18508+P19969+P20236+P23574+P23576+P28471+P28473+P30191+P62813+P63079+P63138+Q91ZM7+Q9ES14); conditions: Compound concentration 10.0 uM
# [17] = target: Follicle-stimulating hormone receptor (Homo sapiens, UniProt P23945); assay: Cell-based assay (FSH Antagonism)
# Follicle-stimulating hormone receptor, sequence (P23945 whole entry): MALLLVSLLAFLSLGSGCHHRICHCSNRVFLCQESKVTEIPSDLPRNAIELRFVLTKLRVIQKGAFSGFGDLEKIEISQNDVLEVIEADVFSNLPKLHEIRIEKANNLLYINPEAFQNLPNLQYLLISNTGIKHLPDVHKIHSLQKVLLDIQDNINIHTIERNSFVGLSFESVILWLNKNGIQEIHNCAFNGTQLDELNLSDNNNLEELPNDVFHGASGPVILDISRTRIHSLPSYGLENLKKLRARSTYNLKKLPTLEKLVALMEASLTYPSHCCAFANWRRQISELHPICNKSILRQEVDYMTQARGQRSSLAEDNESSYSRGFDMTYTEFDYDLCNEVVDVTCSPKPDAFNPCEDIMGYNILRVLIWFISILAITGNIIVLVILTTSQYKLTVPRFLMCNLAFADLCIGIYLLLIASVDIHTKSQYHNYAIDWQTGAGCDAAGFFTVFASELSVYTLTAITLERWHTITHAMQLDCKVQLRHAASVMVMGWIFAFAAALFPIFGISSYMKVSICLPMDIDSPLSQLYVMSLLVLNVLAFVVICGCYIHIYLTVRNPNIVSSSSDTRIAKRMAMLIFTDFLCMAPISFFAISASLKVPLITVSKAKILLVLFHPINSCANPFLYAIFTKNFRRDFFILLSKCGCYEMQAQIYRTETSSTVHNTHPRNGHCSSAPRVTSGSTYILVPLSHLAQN
# [18] = target: Serine/threonine-protein kinase 17A (Homo sapiens) (UniProt Q9UEE5); conditions: Compound concentration 1000.0 nM
# [19] = target: Bone morphogenetic protein receptor type-1B (Homo sapiens) (UniProt O00238); conditions: Compound concentration 1000.0 nM
# [20] = test system: Mast/stem cell growth factor receptor Kit (Homo sapiens), P10721 [V559D,T670I]; conditions: Compound concentration 1000.0 nM
# [21] = target: Epithelial discoidin domain-containing receptor 1 (Homo sapiens) (UniProt Q08345); conditions: Compound concentration 1000.0 nM
# Epithelial discoidin domain-containing receptor 1 (Homo sapiens), sequence (Q08345 whole entry, the tested form may be a part): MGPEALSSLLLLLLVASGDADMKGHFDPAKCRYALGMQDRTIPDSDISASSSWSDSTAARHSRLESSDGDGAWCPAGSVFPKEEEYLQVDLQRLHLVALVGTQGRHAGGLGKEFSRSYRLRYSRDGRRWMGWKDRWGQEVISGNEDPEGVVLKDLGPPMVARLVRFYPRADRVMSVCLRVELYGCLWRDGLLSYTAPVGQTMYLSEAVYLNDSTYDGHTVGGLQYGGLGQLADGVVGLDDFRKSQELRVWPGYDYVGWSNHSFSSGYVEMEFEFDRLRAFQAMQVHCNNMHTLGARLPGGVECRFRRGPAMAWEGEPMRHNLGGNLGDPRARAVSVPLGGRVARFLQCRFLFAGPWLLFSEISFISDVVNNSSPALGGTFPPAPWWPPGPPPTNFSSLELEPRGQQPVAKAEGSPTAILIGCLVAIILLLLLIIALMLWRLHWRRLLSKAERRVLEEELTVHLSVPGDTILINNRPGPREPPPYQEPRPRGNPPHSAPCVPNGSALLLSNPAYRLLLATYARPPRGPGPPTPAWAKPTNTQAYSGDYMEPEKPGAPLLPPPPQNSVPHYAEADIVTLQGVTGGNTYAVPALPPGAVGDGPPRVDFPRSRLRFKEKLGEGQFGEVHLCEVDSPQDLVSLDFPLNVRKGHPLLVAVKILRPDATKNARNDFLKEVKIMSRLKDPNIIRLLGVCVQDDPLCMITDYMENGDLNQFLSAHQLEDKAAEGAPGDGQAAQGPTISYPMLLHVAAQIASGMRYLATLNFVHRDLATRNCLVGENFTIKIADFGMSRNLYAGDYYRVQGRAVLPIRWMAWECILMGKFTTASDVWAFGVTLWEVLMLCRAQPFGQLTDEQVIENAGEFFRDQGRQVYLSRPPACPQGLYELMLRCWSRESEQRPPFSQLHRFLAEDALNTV
# [22] = target: Mitogen-activated protein kinase kinase kinase kinase 5 (Homo sapiens) (UniProt Q9Y4K4); conditions: Compound concentration 1000.0 nM
# [23] = target: Serine/threonine-protein kinase Nek9 (Homo sapiens) (UniProt Q8TD19); conditions: Compound concentration 1000.0 nM
# [24] = test system: Mast/stem cell growth factor receptor Kit (Homo sapiens), P10721 [A829P]; conditions: Compound concentration 1000.0 nM
# [25] = target: Mitogen-activated protein kinase 7 (Homo sapiens) (UniProt Q13164); conditions: Compound concentration 1000.0 nM
# [26] = target: Myosin-IIIa (Homo sapiens) (UniProt Q8NEV4); conditions: Compound concentration 1000.0 nM
# [27] = test system: Epidermal growth factor receptor (Homo sapiens), P00533 [UNDEFINED MUTATION]; conditions: Compound concentration 1000.0 nM
# Epidermal growth factor receptor (Homo sapiens), P00533 [UNDEFINED MUTATION], sequence (P00533 whole entry, looked up, change not shown): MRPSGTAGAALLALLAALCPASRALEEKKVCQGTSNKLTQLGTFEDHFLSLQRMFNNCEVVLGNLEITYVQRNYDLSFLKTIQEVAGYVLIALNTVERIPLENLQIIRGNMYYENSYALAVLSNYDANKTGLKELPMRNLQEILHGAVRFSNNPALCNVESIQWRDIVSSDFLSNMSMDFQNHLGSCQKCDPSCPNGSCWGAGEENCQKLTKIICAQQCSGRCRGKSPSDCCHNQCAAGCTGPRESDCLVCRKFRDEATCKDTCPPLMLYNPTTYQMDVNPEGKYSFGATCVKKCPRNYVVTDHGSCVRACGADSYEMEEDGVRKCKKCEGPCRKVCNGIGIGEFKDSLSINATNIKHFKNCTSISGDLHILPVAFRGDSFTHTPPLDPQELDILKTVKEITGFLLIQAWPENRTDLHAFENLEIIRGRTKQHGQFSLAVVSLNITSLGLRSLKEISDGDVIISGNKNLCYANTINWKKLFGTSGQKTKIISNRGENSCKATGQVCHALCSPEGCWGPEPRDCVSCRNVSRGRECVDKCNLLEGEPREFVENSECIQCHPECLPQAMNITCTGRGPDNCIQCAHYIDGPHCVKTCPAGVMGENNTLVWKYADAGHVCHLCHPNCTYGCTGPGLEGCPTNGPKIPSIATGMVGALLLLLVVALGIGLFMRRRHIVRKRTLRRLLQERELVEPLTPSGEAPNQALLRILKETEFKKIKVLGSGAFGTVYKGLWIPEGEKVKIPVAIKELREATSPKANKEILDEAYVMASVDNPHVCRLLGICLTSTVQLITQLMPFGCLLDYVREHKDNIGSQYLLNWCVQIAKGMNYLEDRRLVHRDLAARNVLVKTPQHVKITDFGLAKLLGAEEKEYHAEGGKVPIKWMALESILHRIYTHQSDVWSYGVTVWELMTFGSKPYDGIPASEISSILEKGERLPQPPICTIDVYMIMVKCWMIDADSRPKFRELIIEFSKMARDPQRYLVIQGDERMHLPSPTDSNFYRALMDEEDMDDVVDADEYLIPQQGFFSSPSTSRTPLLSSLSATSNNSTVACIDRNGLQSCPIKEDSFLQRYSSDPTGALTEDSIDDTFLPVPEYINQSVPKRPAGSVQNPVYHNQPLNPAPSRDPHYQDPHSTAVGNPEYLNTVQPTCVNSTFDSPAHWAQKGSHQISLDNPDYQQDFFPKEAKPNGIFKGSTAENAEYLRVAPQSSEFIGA
# [28] = target: STE20-like serine/threonine-protein kinase (Homo sapiens) (UniProt Q9H2G2); conditions: Compound concentration 1000.0 nM
# [29] = target: Serine/threonine-protein kinase MARK2 (Homo sapiens) (UniProt Q7KZI7); conditions: Compound concentration 1000.0 nM
# [30] = target: Phosphorylase b kinase regulatory subunit alpha, liver isoform (Homo sapiens) (UniProt P46019); conditions: Compound concentration 1000.0 nM
# [31] = target: Mitogen-activated protein kinase 13 (Homo sapiens) (UniProt O15264); conditions: Compound concentration 1000.0 nM
# [32] = target: Serine/threonine-protein kinase/endoribonuclease IRE1 (Homo sapiens) (UniProt O75460); conditions: Compound concentration 1000.0 nM
# [33] = target: Receptor-interacting serine/threonine-protein kinase 1 (Homo sapiens) (UniProt Q13546); conditions: Compound concentration 1000.0 nM
# [34] = target: Mitogen-activated protein kinase kinase kinase 9 (Homo sapiens) (UniProt P80192); conditions: Compound concentration 1000.0 nM
# [35] = target: Sigma non-opioid intracellular receptor 1 (Homo sapiens, UniProt Q99720); conditions: Compound concentration 10.0 uM
# [36] = target: Mitogen-activated protein kinase kinase kinase 1 (Homo sapiens) (UniProt Q13233); conditions: Compound concentration 1000.0 nM
# [37] = target: Serine/threonine-protein kinase 38-like (Homo sapiens) (UniProt Q9Y2H1); conditions: Compound concentration 1000.0 nM
# [38] = target: Cyclin-dependent kinase 14 (Homo sapiens) (UniProt O94921); conditions: Compound concentration 1000.0 nM
# [39] = target: Serine/threonine-protein kinase PLK3 (Homo sapiens) (UniProt Q9H4B4); conditions: Compound concentration 1000.0 nM
# [40] = target: Vascular endothelial growth factor receptor 2 (Homo sapiens) (UniProt P35968); conditions: Compound concentration 1000.0 nM
# Vascular endothelial growth factor receptor 2 (Homo sapiens), sequence (P35968 whole entry): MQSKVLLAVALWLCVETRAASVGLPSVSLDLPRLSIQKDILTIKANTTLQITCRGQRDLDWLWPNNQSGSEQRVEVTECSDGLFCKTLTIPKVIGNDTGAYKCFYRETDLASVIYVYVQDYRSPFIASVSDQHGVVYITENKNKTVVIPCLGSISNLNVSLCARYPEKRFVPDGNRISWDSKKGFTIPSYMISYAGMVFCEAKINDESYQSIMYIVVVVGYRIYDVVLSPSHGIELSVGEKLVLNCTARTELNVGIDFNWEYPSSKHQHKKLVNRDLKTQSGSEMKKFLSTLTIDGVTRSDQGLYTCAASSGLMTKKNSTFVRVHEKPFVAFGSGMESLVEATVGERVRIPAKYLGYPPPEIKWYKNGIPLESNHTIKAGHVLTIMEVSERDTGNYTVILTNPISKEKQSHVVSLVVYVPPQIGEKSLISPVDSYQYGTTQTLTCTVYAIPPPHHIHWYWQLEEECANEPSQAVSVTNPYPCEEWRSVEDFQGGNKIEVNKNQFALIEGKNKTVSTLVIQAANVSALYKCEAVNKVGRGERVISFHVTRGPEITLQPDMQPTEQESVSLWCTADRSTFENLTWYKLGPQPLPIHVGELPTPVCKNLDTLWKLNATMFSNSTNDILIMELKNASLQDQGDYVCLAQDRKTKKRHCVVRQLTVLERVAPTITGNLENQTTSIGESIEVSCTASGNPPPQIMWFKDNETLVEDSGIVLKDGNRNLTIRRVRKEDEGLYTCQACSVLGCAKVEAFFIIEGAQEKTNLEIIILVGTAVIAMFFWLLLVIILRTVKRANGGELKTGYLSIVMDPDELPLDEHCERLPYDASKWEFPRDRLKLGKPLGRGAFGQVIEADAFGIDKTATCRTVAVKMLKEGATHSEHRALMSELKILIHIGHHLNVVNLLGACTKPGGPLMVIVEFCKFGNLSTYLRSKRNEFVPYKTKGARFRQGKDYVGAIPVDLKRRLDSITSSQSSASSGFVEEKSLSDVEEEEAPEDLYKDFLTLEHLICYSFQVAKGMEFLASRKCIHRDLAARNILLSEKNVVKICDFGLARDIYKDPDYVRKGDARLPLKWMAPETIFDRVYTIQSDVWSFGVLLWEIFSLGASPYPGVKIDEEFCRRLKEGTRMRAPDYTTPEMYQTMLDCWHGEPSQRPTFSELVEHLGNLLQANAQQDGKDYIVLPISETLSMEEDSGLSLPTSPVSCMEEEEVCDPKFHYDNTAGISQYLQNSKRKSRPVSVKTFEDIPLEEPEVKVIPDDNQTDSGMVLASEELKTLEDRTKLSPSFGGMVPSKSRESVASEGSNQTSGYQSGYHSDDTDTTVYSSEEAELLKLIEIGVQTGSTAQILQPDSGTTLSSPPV
# [41] = target: BDNF/NT-3 growth factors receptor (Homo sapiens) (UniProt Q16620); conditions: Compound concentration 1000.0 nM
# [42] = target: Bone morphogenetic protein receptor type-1A (Homo sapiens) (UniProt P36894); conditions: Compound concentration 1000.0 nM
# Bone morphogenetic protein receptor type-1A (Homo sapiens), sequence (P36894 whole entry): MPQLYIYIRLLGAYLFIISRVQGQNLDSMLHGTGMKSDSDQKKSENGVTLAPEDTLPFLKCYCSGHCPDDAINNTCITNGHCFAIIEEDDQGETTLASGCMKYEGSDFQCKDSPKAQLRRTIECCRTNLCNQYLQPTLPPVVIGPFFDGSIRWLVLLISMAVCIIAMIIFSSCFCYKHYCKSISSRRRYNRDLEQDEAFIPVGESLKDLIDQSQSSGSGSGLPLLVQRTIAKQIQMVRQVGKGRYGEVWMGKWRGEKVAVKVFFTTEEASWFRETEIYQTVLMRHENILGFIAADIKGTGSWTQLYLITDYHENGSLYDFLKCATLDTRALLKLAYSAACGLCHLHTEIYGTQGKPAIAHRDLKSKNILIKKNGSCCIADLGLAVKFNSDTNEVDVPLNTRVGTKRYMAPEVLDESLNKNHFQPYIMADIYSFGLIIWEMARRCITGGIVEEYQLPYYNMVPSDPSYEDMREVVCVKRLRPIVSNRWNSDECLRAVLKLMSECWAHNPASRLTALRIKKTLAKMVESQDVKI
# [43] = target: Atypical kinase COQ8A, mitochondrial (Homo sapiens) (UniProt Q8NI60); conditions: Compound concentration 1000.0 nM
# [44] = target: Activin receptor type-1 (Homo sapiens) (UniProt Q04771); conditions: Compound concentration 1000.0 nM
compound,measurement,setting,value
O=C(Nc1ccc(Oc2ccc(F)cc2)cc1)N1CCc2ncccc2[C@H]1c1ccc(F)cc1 [BAY-897],residual activity,[1],100%
same,residual activity,[2],89%
same,residual activity,[3],100%
same,residual activity,[4],95%
same,residual activity,[5],90%
same,residual activity,[6],94%
same,residual activity,[7],100%
same,residual activity,[8],97%
same,residual activity,[9],79%
same,residual activity,[10],80%
same,residual activity,[11],94%
same,residual activity,[12],88%
same,residual activity,[13],98%
same,inhibition,[14],25.6%
same,inhibition,[15],43.3%
same,inhibition,[16],26.9%
same,IC50,[17],> 16 µM (not active)
same,residual activity,[18],86%
same,residual activity,[19],87%
same,residual activity,[20],85%
same,residual activity,[21],100%
same,residual activity,[22],91%
same,residual activity,[23],88%
same,residual activity,[24],100%
same,residual activity,[25],96%
same,residual activity,[26],100%
same,residual activity,[27],92%
same,residual activity,[28],100%
same,residual activity,[29],82%
same,residual activity,[30],100%
same,residual activity,[31],96%
same,residual activity,[32],85%
same,residual activity,[33],100%
same,residual activity,[34],100%
same,inhibition,[35],73.4%
same,residual activity,[36],87%
same,residual activity,[37],76%
same,residual activity,[38],94%
same,residual activity,[39],87%
same,residual activity,[40],100%
same,residual activity,[41],84%
same,residual activity,[42],100%
same,residual activity,[43],100%
same,residual activity,[44],96%
O=C(Nc1cnc(Oc2ccc(F)cc2)nc1)N1CCc2ncccc2[C@@H]1c1ccc(F)cc1 [BAY-899],residual activity,[1],100%
same,residual activity,[2],92%
same,residual activity,[3],100%
same,residual activity,[4],82%
same,residual activity,[5],91%
same,residual activity,[6],86%
same,residual activity,[7],100%
same,residual activity,[8],100%
same,residual activity,[9],75%
same,residual activity,[10],89%
same,residual activity,[11],84%
same,residual activity,[12],100%
same,residual activity,[13],88%
same,inhibition,[14],25.3%
same,inhibition,[15],4.38%
same,inhibition,[16],19.4%
same,IC50,[17],> 16 µM (not active)
same,residual activity,[18],85%
same,residual activity,[19],98%
same,residual activity,[20],84%
same,residual activity,[21],95%
same,residual activity,[22],77%
same,residual activity,[23],90%
same,residual activity,[24],100%
same,residual activity,[25],96%
same,residual activity,[26],100%
same,residual activity,[27],86%
same,residual activity,[28],82%
same,residual activity,[29],90%
same,residual activity,[30],96%
same,residual activity,[31],100%
same,residual activity,[32],85%
same,residual activity,[33],99%
same,residual activity,[34],92%
same,inhibition,[35],64.4%
same,residual activity,[36],89%
same,residual activity,[37],75%
same,residual activity,[38],100%
same,residual activity,[39],87%
same,residual activity,[40],88%
same,residual activity,[41],100%
same,residual activity,[42],100%
same,residual activity,[43],95%
same,residual activity,[44],97%
